Data published in patent US11135236B2, “Retinoic acid receptor gamma agonists to attenuate anthracycline-induced cardiotoxicity” (Northwestern University, priority 2018, dated 2021).

What was measured:
RARG-OE hiPSC-CMs = test: hiPSC-CM cell viability after 72 h doxorubicin (CellTiter-Glo); type: cell-based, human
Description: (§1) 384-well plate-based cell viability, caspase 3/7 activity, and reactive oxygen species (ROS) assays. […] Luminescence was measured using a VarioSkan Lux Multi-Mode Reader (Thermo Scientific) with an integration time of 0.25 sec. 10 μM staurosporine (MedChemExpress) was used as a positive control. […] 10 μM staurosporine and 50 μM menadione (both MedChemExpress) was used as a positive control, respectively. Data were analyzed using Prism 7.0 software (GraphPad) using standard dose-response guidelines.

RARG-KO hiPSC-CMs [1] = test: caspase 3 and 7 activity after 24 h doxorubicin (Caspase 3/7-Glo); type: cell-based, human
Description: as §1

RARG-KO hiPSC-CMs [2] = test: hiPSC-CM cell viability after 72 h doxorubicin (CellTiter-Glo); type: cell-based, human
Description: as §1

hiPSC-CMs = test: RNA-seq gene expression analysis of hiPSC-CMs after doxorubicin; settings: 1 μM doxorubicin, 24 h
Excerpt: RNA-seq gene expression analysis. […] RNA was extracted using TRI Reagent and Direct-zol RNA microprep kit (both Zymo) including on-column DNase digestion to remove genomic DNA. Samples were quantified using an Agilent 2100 Bioanalyzer and passed QC. Library preparation was done using a TruSeq RNA v2 kit (Illumina) and sequencing with NextSeq 500 instrument (Illumina) by Northwestern's NuSeq core facility, generating ˜40 million single-end 75 bp reads for each sample. Reads were mapped to the GRCh38 reference human genome using Subread software (Liao et al., 2013). Gene expression levels and exon usage were estimated using featureCounts function in the Subread software (Liao et al., 2013). Differential gene expression analysis was done using Deseq2 package (Love et al., 2014) and R (v3.3.3).

Q: Which results are given for `COc1cccc2c1C(=O)c1c(O)c3c(c(O)c1C2=O)C[C@@](O)(C(=O)CO)C[C@@H]3O[C@H]1C[C@H](N)[C@H](O)[C@H](C)O1` [doxorubicin]?
A: LD50, cell viability (RARG-OE hiPSC-CMs): 2.724 µM; LD50, caspase 3 and 7 activity (RARG-KO hiPSC-CMs [1]): 0.314 µM; LD50, cell viability (RARG-KO hiPSC-CMs [2]): 1.582 µM; Log2fc AC009014.3 (hiPSC-CMs): 5.25; Log2fc AC010136.2 (hiPSC-CMs): −3.13; Log2fc ADCYAP1R1 (hiPSC-CMs): 6.25; Log2fc AL591893.1 (hiPSC-CMs): 6.49; Log2fc BUB1B (hiPSC-CMs): −2.89; Log2fc C11orf87 (hiPSC-CMs): −3.03; Log2fc CA7 (hiPSC-CMs): 5.41; Log2fc CAV3 (hiPSC-CMs): −3.53; Log2fc CCDC60 (hiPSC-CMs): 4.98; Log2fc CCDC178 (hiPSC-CMs): 5.45; Log2fc CENPA (hiPSC-CMs): −2.97; Log2fc CENPE (hiPSC-CMs): −3.10; Log2fc CENPI (hiPSC-CMs): −3.23; Log2fc CHI3L2 (hiPSC-CMs): 5.04; Log2fc CLCA2 (hiPSC-CMs): 5.42; Log2fc CMB9.22P13.2 (hiPSC-CMs): 4.99; Log2fc CRTAC1 (hiPSC-CMs): 5.32; Log2fc CSTA (hiPSC-CMs): 5.15; Log2fc CTD.2083E4.7 (hiPSC-CMs): −3.85; Log2fc CYP2J2 (hiPSC-CMs): −2.82; Log2fc DAND5 (hiPSC-CMs): −4.17; Log2fc DIRAS2 (hiPSC-CMs): −3.30; Log2fc DOK7 (hiPSC-CMs): −3.42; Log2fc DORAS1 (hiPSC-CMs): −2.90; Log2fc EN2 (hiPSC-CMs): 4.93; Log2fc ETV7 (hiPSC-CMs): 6.04; Log2fc FABP5P3 (hiPSC-CMs): 4.97; Log2fc FAM196A (hiPSC-CMs): 6.36; Log2fc FBXL22 (hiPSC-CMs): −2.80; Log2fc FBXO40 (hiPSC-CMs): −2.86; Log2fc FOXD3 (hiPSC-CMs): 5.31; Log2fc FUT1 (hiPSC-CMs): −2.91; Log2fc GCK (hiPSC-CMs): −3.14; Log2fc GDNF (hiPSC-CMs): 5.54; Log2fc GPR87 (hiPSC-CMs): 6.48; Log2fc GRHL3 (hiPSC-CMs): 5.45; Log2fc HIST1H2AG (hiPSC-CMs): 5.29; Log2fc HIST1H2AI (hiPSC-CMs): 5.70; Log2fc HIST1H2BF (hiPSC-CMs): 6.22; Log2fc HIST1H2BG (hiPSC-CMs): 4.94; Log2fc HIST1H3A (hiPSC-CMs): 5.14; Log2fc HIST1H3H (hiPSC-CMs): 5.59; Log2fc HIST1H3J (hiPSC-CMs): 5.16; Log2fc HIST1H4B (hiPSC-CMs): 5.29; Log2fc HPR (hiPSC-CMs): −3.01; Log2fc HRK (hiPSC-CMs): −3.01; Log2fc IGFL3 (hiPSC-CMs): 5.18; Log2fc INSM1 (hiPSC-CMs): 4.97; Log2fc KCNK3 (hiPSC-CMs): −3.07; Log2fc KCNK10 (hiPSC-CMs): 6.80; Log2fc KIF18B (hiPSC-CMs): −2.86; Log2fc LINC01164 (hiPSC-CMs): 4.96; Log2fc LINC01224 (hiPSC-CMs): −3.31; Log2fc LINC01489 (hiPSC-CMs): −3.45; Log2fc LRRC10 (hiPSC-CMs): −3.05; Log2fc LRRC14B (hiPSC-CMs): −4.13; Log2fc MIR145 (hiPSC-CMs): −3.74; Log2fc NEIL3 (hiPSC-CMs): −2.89; Log2fc NFE2 (hiPSC-CMs): −3.03; Log2fc NHLH2 (hiPSC-CMs): 7.10; Log2fc NKX1.2 (hiPSC-CMs): 5.72; Log2fc NMUR1 (hiPSC-CMs): −2.85; Log2fc NOTO (hiPSC-CMs): 5.13; Log2fc NPBWR1 (hiPSC-CMs): 5.06; Log2fc NUF2 (hiPSC-CMs): −2.87; Log2fc PAX5 (hiPSC-CMs): 6.11; Log2fc PEG13 (hiPSC-CMs): −3.16; Log2fc POU3F1 (hiPSC-CMs): 7.21; Log2fc PRSS42 (hiPSC-CMs): −2.89; Log2fc PRSS44 (hiPSC-CMs): −3.02; Log2fc RP1.34B20.4 (hiPSC-CMs): 5.94; Log2fc RP1.46F2.3 (hiPSC-CMs): −3.03; Log2fc RP3.326I13.1 (hiPSC-CMs): 5.19; Log2fc RP3.412A9.12 (hiPSC-CMs): −2.87; Log2fc RP4.794I6.4 (hiPSC-CMs): 5.33; Log2fc RP5.1139B12.4 (hiPSC-CMs): −3.80; Log2fc RP5.1148A21.3 (hiPSC-CMs): 5.37; Log2fc RP5.884C9.2 (hiPSC-CMs): 5.53; Log2fc RP11.108M9.3 (hiPSC-CMs): −4.12; Log2fc RP11.1149O23.2 (hiPSC-CMs): 5.86; Log2fc RP11.19O2.1 (hiPSC-CMs): −3.69; Log2fc RP11.234B24.2 (hiPSC-CMs): −2.89; Log2fc RP11.529G21.2 (hiPSC-CMs): 5.03; Log2fc RP11.712B9.2 (hiPSC-CMs): 5.10; Log2fc RPL7P3 (hiPSC-CMs): −3.03; Log2fc SEC14L5 (hiPSC-CMs): −3.33; Log2fc SLC4A11 (hiPSC-CMs): 5.81; Log2fc SLC5A1 (hiPSC-CMs): −2.94; Log2fc TFAP2C (hiPSC-CMs): 4.93; Log2fc TGFB111 (hiPSC-CMs): −2.77; Log2fc TMEM72 (hiPSC-CMs): −2.93; Log2fc TMEM88 (hiPSC-CMs): −2.81; Log2fc TMEM158 (hiPSC-CMs): 5.19; Log2fc TMEM229B (hiPSC-CMs): 4.99; Log2fc TNFRSF10A (hiPSC-CMs): 5.25; Log2fc UTS2R (hiPSC-CMs): −3.09; Log2fc XIRP2 (hiPSC-CMs): −2.88; Log2fc ZNF385C.1 (hiPSC-CMs): −3.34; genes associated with apoptosis, DNA damage, oxidative stress, and doxorubicin resistance (hiPSC-CMs; RNA-seq): significant upregulation; genes associated with cardiac function (hiPSC-CMs; RNA-seq): downregulation
